# Literature values, collected in paper PMC7998926 (Microorganisms, 2021).
# Test system: MARV
# Conditions: mouse, in vivo; cited from earlier work
structure (smiles),measurement,value
CC(C)COCC(CN(Cc1ccccc1)c1ccccc1)N1CCCC1 (stereo not shown) [Bepridil],protection,strongly protected
